ChEMBL document CHEMBL3217615, “Novel 3,5-bis(arylidiene)-4-piperidone based monocarbonyl analogs of curcumin: anticancer activity evaluation and mode of action study” (2014)

Tests used:
Type in all cases: functional
[1] = Growth inhibition of human BT549 cells after 48 hrs by sulforhodamine B assay; conditions: BT-549, 48 h
Malme-3M = assay: Growth inhibition of human MALME-3M cells assessed as cell growth at 10^-6 M after 48 hrs by sulforhodamine B assay; conditions: read-out: Activity
U-251 [2] = assay: Growth inhibition of human U251 cells assessed as cell growth at 10^-6 M after 48 hrs by sulforhodamine B assay; conditions: U-251, 48 h, read-out: Activity
HL-60(TB) [3] = assay: Growth inhibition of human HL-60(TB) cells assessed as cell growth at 10^-6 M after 48 hrs by sulforhodamine B assay; conditions: HL-60, 48 h, read-out: Activity
[4] = Growth inhibition of human BT549 cells assessed as cell growth at 10^-7 M after 48 hrs by sulforhodamine B assay; conditions: BT-549, 48 h, read-out: Activity
PC-3 = assay: Growth inhibition of human PC3 cells assessed as cell growth at 10^-7 M after 48 hrs by sulforhodamine B assay; conditions: PC-3, 48 h, read-out: Activity
[5] = Growth inhibition of human UO31 cells assessed as cell growth at 10^-7 M after 48 hrs by sulforhodamine B assay; conditions: UO-31, 48 h, read-out: Activity
CAKI-1 = assay: Growth inhibition of human CAKI-1 cells assessed as cell growth at 10^-7 M after 48 hrs by sulforhodamine B assay; conditions: CAKI-1, 48 h, read-out: Activity
A498 [6] = assay: Growth inhibition of human A498 cells assessed as cell growth at 10^-7 M after 48 hrs by sulforhodamine B assay; conditions: A498, 48 h, read-out: Activity
SK-MEL-2 = assay: Growth inhibition of human SK-MEL-2 cells assessed as cell growth at 10^-5 M after 48 hrs by sulforhodamine B assay; conditions: SK-MEL-2, 48 h, read-out: Activity
A498 [7] = assay: Growth inhibition of human A498 cells assessed as cell growth at 10^-6 M after 48 hrs by sulforhodamine B assay; conditions: A498, 48 h, read-out: Activity
[8] = Growth inhibition of human NCI-ADR-RES cells assessed as cell growth at 10^-6 M after 48 hrs by sulforhodamine B assay; conditions: read-out: Activity
SK-OV-3 = assay: Growth inhibition of human SKOV3 cells assessed as cell growth at 10^-4 M after 48 hrs by sulforhodamine B assay; conditions: SK-OV-3, 48 h, read-out: Activity
NCI-H460 [9] = assay: Growth inhibition of human NCI-H460 cells assessed as cell growth at 10^-4 M after 48 hrs by sulforhodamine B assay; conditions: NCI-H460, 48 h, read-out: Activity
[10] = Growth inhibition of human UACC257 cells assessed as cell growth at 10^-8 M after 48 hrs by sulforhodamine B assay; conditions: UACC-257, 48 h
U-251 [11] = assay: Growth inhibition of human U251 cells assessed as cell growth at 10^-8 M after 48 hrs by sulforhodamine B assay; conditions: U-251, 48 h
SNB-75 = assay: Growth inhibition of human SNB75 cells assessed as cell growth at 10^-8 M after 48 hrs by sulforhodamine B assay; conditions: SNB-75, 48 h
SR = assay: Growth inhibition of human SR cells assessed as cell growth at 10^-8 M after 48 hrs by sulforhodamine B assay
HL-60(TB) [12] = assay: Growth inhibition of human HL-60(TB) cells assessed as cell growth at 10^-8 M after 48 hrs by sulforhodamine B assay; conditions: HL-60, 48 h
SN12C = assay: Growth inhibition of human SN12C cells after 48 hrs by sulforhodamine B assay
[13] = Growth inhibition of human HCC2998 cells after 48 hrs by sulforhodamine B assay; conditions: HCC 2998, 48 h
NCI-H522 = assay: Growth inhibition of human NCI-H522 cells after 48 hrs by sulforhodamine B assay; conditions: NCI-H522, 48 h
NCI-H460 [14] = assay: Growth inhibition of human NCI-H460 cells after 48 hrs by sulforhodamine B assay; conditions: NCI-H460, 48 h
HOP-62 = assay: Growth inhibition of human HOP62 cells after 48 hrs by sulforhodamine B assay; conditions: HOP-62, 48 h
MDA-MB-468 = assay: Growth inhibition of human MDA-MB-468 cells assessed as cell growth at 10^-4 M after 48 hrs by sulforhodamine B assay; conditions: MDA-MB-468, 48 h, read-out: Activity
T47D = assay: Growth inhibition of human T47D cells assessed as cell growth at 10^-4 M after 48 hrs by sulforhodamine B assay; conditions: read-out: Activity
MCF7 = assay: Growth inhibition of human MCF7 cells assessed as cell growth at 10^-4 M after 48 hrs by sulforhodamine B assay; conditions: MCF7, 48 h, read-out: Activity
[15] = Growth inhibition of human UACC62 cells assessed as cell growth at 10^-7 M after 48 hrs by sulforhodamine B assay; conditions: UACC-62, 48 h, read-out: Activity
SK-MEL-28 = assay: Growth inhibition of human SK-MEL-28 cells assessed as cell growth at 10^-7 M after 48 hrs by sulforhodamine B assay; conditions: SK-MEL-28, 48 h, read-out: Activity
MDA-MB-435 = assay: Growth inhibition of human MDA-MB-435 cells assessed as cell growth at 10^-7 M after 48 hrs by sulforhodamine B assay; conditions: MDA-MB-435, 48 h, read-out: Activity
[16] = Growth inhibition of human SF539 cells assessed as cell growth at 10^-7 M after 48 hrs by sulforhodamine B assay; conditions: SF-539, 48 h, read-out: Activity
KM12 = assay: Growth inhibition of human KM12 cells assessed as cell growth at 10^-7 M after 48 hrs by sulforhodamine B assay; conditions: KM12, 48 h, read-out: Activity
ACHN = assay: Growth inhibition of human ACHN cells assessed as cell growth at 10^-8 M after 48 hrs by sulforhodamine B assay
[17] = read-out: LC50 (the source's name)

Question: With `O=C1/C(=C/c2ccc(Cl)cc2Cl)CN(S(=O)(=O)c2ccccc2)C/C1=C\c1ccc(Cl)cc1Cl` as the molecule, how does the GI50 [1] read?
Answer: 987 nM

Question: What about the LC50 [1] of the same molecule?
Answer: > 100000 nM

Question: What about the TGI [1] of the same molecule?
Answer: 4210 nM

Question: And the growth at 1 µM (Malme-3M)?
Answer: 123%

Question: What about the growth at 1 µM (U-251 [2]) of the same molecule?
Answer: -64%

Question: What about the growth at 1 µM (HL-60(TB) [3]) of the same molecule?
Answer: 36%

Question: What about the growth at 0.1 µM [4] of the same molecule?
Answer: 110%

Question: What about the growth at 0.1 µM (PC-3) of the same molecule?
Answer: 93%

Question: What about the growth at 0.1 µM [5] of the same molecule?
Answer: 93%

Question: And the growth at 0.1 µM (CAKI-1)?
Answer: 92%

Question: And the growth at 0.1 µM (A498 [6])?
Answer: 61%

Question: What about the growth at 10 µM (SK-MEL-2) of the same molecule?
Answer: 36%

Question: What about the growth at 1 µM (A498 [7]) of the same molecule?
Answer: 48%

Question: What about the growth at 1 µM [8] of the same molecule?
Answer: 54%

Question: What about the growth at 100 µM (SK-OV-3) of the same molecule?
Answer: 24%

Question: What about the growth at 100 µM (NCI-H460 [9]) of the same molecule?
Answer: -61%

Question: And the GI50 [10]?
Answer: 4070 nM

Question: What about the LC50 [10] of the same molecule?
Answer: > 100000 nM

Question: And the growth at 0.01 µM ([10]; read-out: Activity)?
Answer: 94%

Question: And the TGI ([10]; read-out: pTGI (converted))?
Answer: > 100000 nM

Question: What about the GI50 (U-251 [11]) of the same molecule?
Answer: 174 nM

Question: What about the LC50 (U-251 [11]) of the same molecule?
Answer: 813 nM

Question: What about the growth at 0.01 µM (U-251 [11]; read-out: Activity) of the same molecule?
Answer: 96%

Question: What about the TGI (U-251 [11]; read-out: pTGI (converted)) of the same molecule?
Answer: 372 nM

Question: What about the GI50 (SNB-75) of the same molecule?
Answer: 437 nM

Question: What about the LC50 (SNB-75) of the same molecule?
Answer: > 100000 nM

Question: And the growth at 0.01 µM (SNB-75; read-out: Activity)?
Answer: 79%

Question: And the TGI (SNB-75; read-out: pTGI (converted))?
Answer: 7240 nM

Question: And the GI50 (SR)?
Answer: 186 nM

Question: And the LC50 (SR)?
Answer: > 100000 nM

Question: What about the growth at 0.01 µM (SR; read-out: Activity) of the same molecule?
Answer: 93%

Question: What about the TGI (SR; read-out: pTGI (converted)) of the same molecule?
Answer: 871 nM

Question: What about the GI50 (HL-60(TB) [12]) of the same molecule?
Answer: 562 nM

Question: And the growth at 0.01 µM (HL-60(TB) [12]; read-out: Activity)?
Answer: 97%

Question: What about the CC50 (HL-60(TB) [12]; read-out: pLC50 (the source's name) (converted)) of the same molecule?
Answer: > 100000 nM

Question: What about the TGI (HL-60(TB) [12]; read-out: pTGI (converted)) of the same molecule?
Answer: 3980 nM

Question: And the GI50 (SN12C)?
Answer: 245 nM

Question: What about the TGI (SN12C) of the same molecule?
Answer: 718 nM

Question: What about the CC50 (SN12C; [17]) of the same molecule?
Answer: > 100000 nM

Question: And the GI50 [13]?
Answer: 383 nM

Question: What about the TGI [13] of the same molecule?
Answer: 1360 nM

Question: What about the CC50 [13, 17] of the same molecule?
Answer: 4540 nM

Question: What about the GI50 (NCI-H522) of the same molecule?
Answer: 854 nM

Question: What about the TGI (NCI-H522) of the same molecule?
Answer: 2990 nM

Question: And the CC50 (NCI-H522; [17])?
Answer: 9730 nM

Question: And the GI50 (NCI-H460 [14])?
Answer: 208 nM

Question: And the TGI (NCI-H460 [14])?
Answer: 447 nM

Question: What about the CC50 (NCI-H460 [14]; [17]) of the same molecule?
Answer: 959 nM

Question: And the GI50 (HOP-62)?
Answer: 385 nM

Question: What about the TGI (HOP-62) of the same molecule?
Answer: > 100000 nM

Question: What about the CC50 (HOP-62; [17]) of the same molecule?
Answer: > 100000 nM

Question: And the growth at 100 µM (MDA-MB-468)?
Answer: -34%

Question: And the growth at 100 µM (T47D)?
Answer: 11%

Question: What about the growth at 100 µM (MCF7) of the same molecule?
Answer: 9%

Question: And the growth at 0.1 µM [15]?
Answer: 95%

Question: And the growth at 0.1 µM (SK-MEL-28)?
Answer: 93%

Question: What about the growth at 0.1 µM (MDA-MB-435) of the same molecule?
Answer: 88%

Question: And the growth at 0.1 µM [16]?
Answer: 97%

Question: What about the growth at 0.1 µM (KM12) of the same molecule?
Answer: 105%

Question: What about the GI50 (ACHN) of the same molecule?
Answer: 871 nM

Question: And the LC50 (ACHN)?
Answer: > 100000 nM

Question: And the growth at 0.01 µM (ACHN; read-out: Activity)?
Answer: 99%

Question: What about the TGI (ACHN; read-out: pTGI (converted)) of the same molecule?
Answer: 4570 nM
